Laboratory results from patent US8937050B2, “Methods and compositions for treatment of autism” (The Johns Hopkins University, priority 2011, dated 2015).

Assays:
liver of mice = conditions: 3- and 12-hours after single dose 90 mg/kg by gavage, Hu et al., 2005; cited from earlier work
XALD fibroblasts = assay: Fatty acid β-oxidation of 1-14C-labeled fatty acids; type: cell-based, human; conditions: XALD fibroblasts, five days; FIG. 1B
Experimental: Fatty acid β-oxidation activity in XALD fibroblasts was determined by measuring their capacity to degrade 1-^14C-labeled fatty acids to water-soluble products as described in McGuiness et al., 2003.
4PBA-induced peroxisomal VLCFA β-oxidation (degradation) is dependent on mitochondrial long chain fatty acid (LCFA) β-oxidation (McGuinness et al., 2003). […] Antimycin A (AA) is a cytochrome c reductase inhibitor that inhibits the mitochondrial electron transport chain, mitochondrial biogenesis, and thus, cellular respiration (Ranganathan et al., 2009). […] XALD fibroblasts were treated with 4PBA in the presence or absence of antimycin A (AA), a cytochrome c reductase inhibitor, for five days and β-oxidation levels of LCFA (C16:0) and VLCFA (C24:0) levels were measured.

ABCD2 = conditions: Li et al., 2002; cited from earlier work
K562 cells [1] = assay: Flow cytometric analysis of mitochondrial mass (Mitotracker); type: cell-based, human; conditions: K562 cells, 1.2 mM SB or 100 μM HU; FIG. 1C
Experimental: (§1) Fibroblasts (70-95% confluent) were treated with 5 mM 4PBA (1 mM for JNK inhibition studies), 600 μM HU, 200 nM TSA, or 5 μM SFN unless otherwise specified.
K562 cells were incubated with 50 nM Mitotracker Green FM, 300 nM Mitotracker Deep Red 633 (Invitrogen), or PBS as a negative control for 15 min at 37° C. or stained with anti-Pex14 using Caltag Fix and Perm reagents (Invitrogen) following the manufacturer's instructions. Stained cells were suspended in 0.5 mL of 1% paraformaldehyde/PBS and subjected to flow cytometric analysis (FACScan machine, Becton Dickinson, Franklin Lakes, N.J.).
(§2) K562 cells were treated with SB and HU for four to ten days. […] (n≧3 unless otherwise noted).
To determine whether the induction of mitochondrial biogenesis by SB or HU treatment was necessary for the induction of HbF-producing cell production, K562 cells were treated with SB or HU in the presence or absence of AA. […] After two to four days of drug treatment with or without AA, mitochondrial mass was measured using Mitotracker, a mitochondrial stain. Fold change (drug treated/control) is shown. […] After four days of drug treatment with or without AA, cells were stained with DAF. The relative number of cells producing HbF (DAF stained cells) were plotted. […] After eight to ten days of drug treatment, peroxisome proliferation was measured using an antibody against the peroxisomal membrane protein, PEX14 and a FITC-labeled secondary antibody. Fold change (drug treated/control) is shown. In FIGS. 1C, 1D, and 1E, the * represents a statistically significant increase in a measurement between drug treated and control samples or a statistically significant decrease in a measurement between drug treated and drug treated samples in the presence of AA (p≦0.05) (Bars=SEM). This finding indicates dependence of the beneficial effect (i.e., elevated HbF levels) on induced mitochondrial biogenesis. Thus, the therapeutic effects observed in SCD may involve the pharmacological induction of mitochondrial biogenesis by SB or HU. […]

K562 cells [2] = assay: HbF-producing cell production (DAF staining); type: cell-based, human; conditions: K562 cells, 1.2 mM SB or 100 μM HU; FIG. 1D
Experimental: as §1
K562 cells were suspended in 1.1 mL media and 240 μL of DAF [working solution 50 μL 2,7diaminofluorene (DAF) stock (50 μg DAF in 5 mL 90% glacial acetic acid), 50 μL 30% hydrogen peroxide, and 2.5 ml 200 mM Tris-HCl, pH 7.0]. DAF stained hemoglobinized cells were scored using a hemocytometer.
as §2
To determine whether the induction of mitochondrial biogenesis by SB or HU treatment was necessary for the induction of HbF-producing cell production, K562 cells were treated with SB or HU in the presence or absence of AA. […] After two to four days of drug treatment with or without AA, mitochondrial mass was measured using Mitotracker, a mitochondrial stain. Fold change (drug treated/control) is shown. […] After four days of drug treatment with or without AA, cells were stained with DAF. The relative number of cells producing HbF (DAF stained cells) were plotted. […] After eight to ten days of drug treatment, peroxisome proliferation was measured using an antibody against the peroxisomal membrane protein, PEX14 and a FITC-labeled secondary antibody. Fold change (drug treated/control) is shown. In FIGS. 1C, 1D, and 1E, the * represents a statistically significant increase in a measurement between drug treated and control samples or a statistically significant decrease in a measurement between drug treated and drug treated samples in the presence of AA (p≦0.05) (Bars=SEM). This finding indicates dependence of the beneficial effect (i.e., elevated HbF levels) on induced mitochondrial biogenesis. Thus, the therapeutic effects observed in SCD may involve the pharmacological induction of mitochondrial biogenesis by SB or HU.
K562 cells were treated for four days with HU in the presence or absence of SP600125 or PBS as a control (CON). […]

[3] = tested on: sickle cell disease (SCD); conditions: cited from earlier work

C[S@@+]([O-])CCCCN=C=S [SFN, 1-isothiocyanato-4R-(methylsulfinyl)butane]
Heat shock proteins and ubiquitin/26 S proteasome subunits in liver (liver of mice): induced

4-phenylbutyrate [4PBA]
LCFA (C16:0) β-oxidation (XALD fibroblasts): induced
VLCFA (C24:0) β-oxidation (XALD fibroblasts): induced
expression of ABCD2 (ABCD2): increased

NC(=O)NO [HU, hydroxyurea]
mitochondrial mass (K562 cells [1]): significantly increased
number of HbF-producing cells (K562 cells [2]): significantly increased
cognitive function in children with SCD ([3]; Puffer et al., 2007): improve cognitive function
incidence of strokes ([3]; SCD): decreases
